One series has as its system CD8 T cell proliferation. Nature of the series: CD8 T cell proliferation by CFSE dilution. The settings on record: concentrations low enough to avoid cytotoxic effects; data not shown. The format is cell-based, human. How it is done: (§1) Fresh human peripheral blood mononuclear cells (PBMCs) from healthy donors (n = 4) were prepared from buffy coats. CD3^+ T cells were isolated by immunomagnetic separation (negative selection, StemCell, lot 18A87710), carboxyfluorescein succinimidyl ester (CFSE)-labeled, resuspended in StemCell Immunocult^TM-XF T cell expansion medium, and treated with compounds or vehicle for 2 h at room temperature. The isolated CD3^+ T cells were stained for CD3, CD4, and CD8, and their purity was assessed by flow cytometry. Cells were then cultured in a 96-well flat-bottomed plate (10^5 cells/well), precoated for 1 h at 37 °C with 0.2 μg·ml^−1 plate-bound anti-CD3 (clone OKT3, BioLegend). […] Cells were cultured in the presence of AX-024, rapamycin, peptide 11Rwt, peptide 11R85, peptide 11Rscr (derived from Ref. [11]; see below for sequences), or vehicle for 4 days. At the end of culture, cells were stained for viability, and CFSE dilution was assessed by flow cytometry (with gating on CD4 versus CD8).

The test system of the next series is CD4 T cell. Nature of the series: Cytotoxicity / viability of CD4 T cells in proliferation assay. Format: cell-based, human. Conditions: 4 days, decreased cell viability (gray boxes in Fig. 2). How it is done:
(§2) Figure 2. […] CD4 T cell proliferation was assessed upon stimulation with anti-CD3ϵ by CFSE dilution as a measure for cellular proliferation, analyzed on day 4. For rapamycin and AX-024–treated cells, the dashed line indicates control proliferation at a DMSO concentration of 0.2%. For CD3ϵ-derived peptides 11Rwt, 11R085, and 11Rscr, the dashed line indicates control proliferation at 0.3% DMSO, 0.3% PBS. 11Rwt has sequence R11-G3-[…], 11R085 R11-G3-Q(dK)[…], and 11Rscr R11-G3-[…](dK)PQP. A polyarginine tag is used to enable cell penetration of the peptides ([10]). The gray boxes indicate concentrations of compound leading to decreased cell viability. These values should be disregarded. Binding of peptides 11Rwt and 11R085, but not 11Rscr, to Nck-SH3.1 was confirmed by NMR spectroscopy (Fig. S1). Asterisks, p < 0.05 as determined by a repeated-measure one-way analysis of variance with Holm–Sidak's multiple-comparison test to DMSO/PBS. Dotted lines, mean DMSO/PBS values. Error bars, S.D.
as §1

The subject of a further series is CD4 T cell proliferation. Nature of the series: CD4 T cell proliferation by CFSE dilution, anti-CD3 stimulation. Format: cell-based, human. The settings on record: concentrations up to 1 μM; anti-CD3, CFSE dilution, day 4, 0.3% DMSO/0.3% PBS control. How it is done:
as §2, §1

Series [1] addresses T1, Nck1-SH3.1 (Homo sapiens, UniProt P16333).
T1 construct: His10-Avi-TEV-Nck1-SH3.1 (residues 1–61, MM 11,847 Da) was biotinylated and immobilized via streptavidin; made in house; host or cells: Escherichia coli BL21 (DE3)
Nature of the series: NMR binding of poly-Arg CD3ϵ-derived peptides to Nck1-SH3.1. Conditions: Fig. S1. As to the method:
NMR spectra were recorded on a Bruker 600-MHz Avance NEO spectrometer equipped with a cryogenic QCI probe head at 27 °C in 25 mM […], 150 mM NaCl. The Topspin 4.0 software (Bruker, Fällanden) was used for spectrometer operation and data processing. For ^1H ligand-observed measurements, a relaxation filtered pulse sequence utilizing a spinlock of 50 ms was applied. 1D spectra were acquired with 128 scans, a sweep width of 26 ppm, and an acquisition time of 2 s. 2D ^1H-^15N HSQC spectra with natural ^15N isotope abundance were recorded over 72 h with a spectral width of 16 ppm and 35 ppm in the proton and nitrogen dimensions, respectively, with 256 increments (complex) and 1000 scans per increment. A relaxation delay of 1 s was used between scans. For the DOSY measurements (reviewed in Ref. [51]), the Bruker pulse sequence ledbpgp2s with a diffusion delay of 50 ms and a gradient length of 600 μs was used. The gradient strength was varied from 5 to 95% to record 16 increments of 512 scans with a sweep width of 18 ppm and a relaxation delay of 1 s.
Samples for ligand-observed measurements were prepared in 25 mM sodium phosphate buffer, pH 6.5, 150 mM NaCl. One sample contained 50 μM AX-024, and the other contained 50 μM CD3ϵ peptide.

Series [2] has as its target T1, Nck1-SH3.1. Nature of the series: SPR binding to immobilized Nck1-SH3.1. Conditions: SPR, peptide up to 200 μM, Nck1-SH3.1 1260 RU, single titration, qualitative. How it is done:
SPR experiments were conducted on a T200 Biacore instrument (GE Healthcare, Uppsala, Sweden) at 20 °C in 10 mM HEPES/NaOH, pH 7.8, 150 mM NaCl, 1 mM TCEP. […] Streptavidin is immobilized on the CAP sensor by way of double-strand DNA formation. A ssDNA is covalently coupled to the sensor surface, and a complementary DNA strand, covalently linked to streptavidin, is hybridized. To regenerate the surface, the DNA duplex is dissociated by washing with high-ionic strength solution. […] The reference channel for binding studies contained the same streptavidin-coated surface blocked with biotin.
Five replicates were performed for each CD3ϵ concentration (Table S1), whereas for the qualitative assessment of the APVA variant, only a single titration was performed.
SPR equilibrium signals were corrected for the signal in the reference channel and buffer contributions. The resulting SPR amplitudes were plotted as a function of peptide concentration, and a simple binding equation describing a Langmuir adsorption isotherm was fit to the data (GraphPad Prism) to extract the equilibrium dissociation constant Kd. (Eq. 1) RU=RUmax·[peptide]/[peptide]+Kd
For orientation: SPR reads the build-up and loss of mass on a sensor chip optically.

“R11-G3-Q(dK)KECPPPVPKRDY [11R085, R11-G3-tagged cell-penetrating CD3ϵ-derived peptide]”: in the series on CD8 T cell proliferation, the “effect on CD8 T cell proliferation” value was “did not affect CD8 T cell proliferation”. Moreover, the “concentration at which peptides were cytotoxic” value in the series on CD4 T cell is listed as “exceeding 6 μM”. Besides, the “inhibition of CD4 T cell proliferation by peptides” value in the series with CD4 T cell proliferation is “none of the peptides inhibited CD4 T cell proliferation”. The “binding to Nck1-SH3.1 by NMR” value on Nck1-SH3.1 [1] was “bind to Nck1-SH3.1”.
For “RGQNKERPAPVANPDY-NH2 [APVA variant of CD3ϵ peptide]”, on Nck1-SH3.1 [2], the “fold weaker binding of APVA mutant than WT CD3ϵ peptide” value is given as ~10 -fold.
As for “R11-G3-RGYNKERPPPVPNPDY [11Rwt, R11-G3-tagged cell-penetrating CD3ϵ-derived peptide]”, the “effect on CD8 T cell proliferation” value in the series on CD8 T cell proliferation was “did not affect CD8 T cell proliferation”. For the same substance, the “concentration at which peptides were cytotoxic” value in the series on CD4 T cell is recorded as “exceeding 6 μM”. The “inhibition of CD4 T cell proliferation by peptides” value with CD4 T cell proliferation is listed as “none of the peptides inhibited CD4 T cell proliferation”. In addition, the “binding to Nck1-SH3.1 by NMR” value at Nck1-SH3.1 [1] is “bind to Nck1-SH3.1”.
The matching figures for “R11-G3-PKVRECPDYK(dK)PQP [11Rscr, scrambled peptide with the same composition as 11R085 but lacking the canonical PRS]”: “did not affect CD8 T cell proliferation”, “exceeding 6 μM”, “none of the peptides inhibited CD4 T cell proliferation” and “does not”.

The record behind these values is paper PMC7278359, “Small molecule AX-024 reduces T cell proliferation independently of CD3ϵ/Nck1 interaction, which is governed by a domain swap in the Nck1-SH3.1 domain” (The Journal of Biological Chemistry, 2020).
